This note sets out measurements from publication PMC5864073, “A D-enantiomer of the antimicrobial peptide GL13K evades antimicrobial resistance in the Gram positive bacteria Enterococcus faecalis and Streptococcus gordonii” (PLoS ONE, 2018).

The test system of data set [1] is S. gordonii DL1 (wild-type). The experiment in a line: Minimal inhibitory concentration, broth dilution. The class given is cell-based, Streptococcus gordonii. Details: key: >: Mean MIC is above the tested concentration range (this value was set at 200 mg/L for data analysis). To be noted: THB, 20 h, 37°C. The procedure: The minimal inhibitory concentration (MIC) assays were performed essentially as described for cationic AMPs, but using streptococcal growth-friendly THB without the addition of blood or serum components. A working stock of 1-5x10^5 CFU/ml in 90 or 100 μl THB was added to 10 or 20 μl of a 2-fold serial peptide dilution in 0.01% acetic acid and incubated for 20 h at 37°C in 96-well polypropylene plates. The OD at 600 nm (OD600) was determined in a Synergy HT plate reader (BioTek, Winooski, VT). Control wells for growth without peptide and growth medium without bacteria were included. Bacterial cell numbers in the inoculum were verified by colony count.
(Dilution methods test growth across graded concentrations, often in twofold steps.)

In data set [2] the test system is conditioned supernatant of protease-deficient E. faecalis (TX5128). The experiment in a line: Proteolysis of peptide by conditioned culture supernatant (P. aeruginosa Xen41 bioassay). The data set is classed as in vitro ADME, Enterococcus faecalis. The note with it: conditioned sterile-filtered supernatant of protease-deficient E. faecalis TX5128, peptide 32 mg/L, 2 h, 37°C; bioluminescence read-out after 15 min; three independent experiments. The procedure:
(§1) To test proteolytic processing of GL13K peptides, overnight bacterial cultures were centrifuged (5 min, 13,000 g) and the conditioned supernatants were sterile-filtered (0.22 μm, Corning). Filtered supernatant (16.8 μl) was incubated with 3.2 μl (3.2 μg) peptide at 37°C for 2 h to allow bacterial proteases in the supernatant to process the peptide. To determine residual peptide activity, 70 μl of 10 mM sodium phosphate buffer, pH 7.4 was added to each sample and then supplemented with 10 μl (10^8 CFU) of bioluminescent Pseudomonas aeruginosa Xen41 (Caliper Lifesciences; now Perkin Elmer, MA) that had been washed three times in 0.9% NaCl (final maximal peptide concentration 32 mg/L). Viability of the indicator bacteria was determined after 15 min incubation at 37°C by determining bioluminescence in a Synergy HT plate reader. The luminescence detected in the absence of added peptide was used as a measure of 100% proteolysis.
(§2) Fig 1 Relative proteolysis of GL13K peptides. (A): Wild-type (OG1RF) or the protease-negative strain (TX5128) of E. faecalis was cultured on THA containing 3% gelatin. Gelatinase activity was visualized as a turbid halo around the bacterial colonies; (B): L-GL13K (L) or D-GL13K (D) (32 mg/L) was incubated with conditioned supernatant of wild-type (OG1RF) or the protease-negative strain (TX5128) of E. faecalis for 2 h. Residual peptide activity was determined by adding bioluminescent P. aeruginosa Xen41 to the mixture. Bioluminescence from surviving bacteria was used as a measure of proteolytic degradation of each peptide and expressed relative to bacterial bioluminescence in the absence of peptides (equivalent to 100% proteolysis). Data are shown as mean ± SEM from three independent experiments and were analyzed by paired t-test for each strain. n.s., not significant.

Data set [3] concerns conditioned supernatant of wild-type E. faecalis (OG1RF). The data set is described as above. The class given is in vitro ADME, Enterococcus faecalis. To be noted: conditioned sterile-filtered supernatant of E. faecalis OG1RF, peptide 32 mg/L, 2 h, 37°C; bioluminescence read-out after 15 min; three independent experiments. The procedure:
as §1, §2

Data set [4] deals with E. faecalis OG1RF. Put plainly: Triton X-100 induced bacterial autolysis assay. To be noted: PBS with 0.05% Triton X-100, peptide 100 mg/L, OD600 for 180 min. The class given is cell-based, Enterococcus faecalis. Here is the method: (§3) The lysis assay followed an established protocol for bacterial autolysis with minor modifications. Exponentially growing cells were washed twice in PBS then washed once in ice-cold dH2O. The bacteria were incubated in PBS with 0.05% Triton X-100 and peptides at a concentration of 100 mg/L. OD600 was monitored spectrophotometrically for 180 min. In some experiments, the cells were incubated with the peptides for 2h in PBS+0.05% Triton X-100 and then cultured on THA to enumerate surviving cells.
(§4) Fig 2 Effect of GL13K peptides on Triton X-100 induced autolysis. E. faecalis OG1RF (A) or the autolysis-deficient strain TX5128 (B) were incubated in PBS with 0.05% Triton X-100 in the absence of peptide (control) or in the presence of 100 mg/L of L-GL13K or D-GL13K (D). The OD600 was recorded for 180 min and expressed as a percent of starting OD600 of the control sample. (C): Bactericidal activity of GL13K peptides in PBS+0.05% Triton X-100. E. faecalis OG1RF were incubated with 0.05% Triton X-100 in the absence of peptide (Ctrl) or with L-GL13K or D-GL13K for 2h. Surviving CFU were enumerated and are shown as mean ± SEM (N = 5). Peptide treated samples were compared to the untreated control by Kruskal-Wallis test with Dunn’s multiple comparison post-test. n.s., not significant.

Data set [5] has as its system E. faecalis OG1RF. The experiment in a line: Bactericidal activity in PBS+0.05% Triton X-100. To be noted: PBS+0.05% Triton X-100, peptide 100 mg/L, 2 h, CFU on THA, N = 5. The data set is classed as cell-based, Enterococcus faecalis. Here is the method: as §3, §4

The structures appear in SMILES notation. Where a SMILES comes first, the peptide text is derived from it.

Turning to `CC[C@H](C)[C@H](NC(=O)[C@H](CCCCN)NC(=O)CN)C(=O)N[C@H](C(=O)N[C@@H](CCCCN)C(=O)N[C@@H](CC(C)C)C(=O)N[C@@H](CCCCN)C(=O)N[C@@H](C)C(=O)N[C@@H](CO)C(=O)N[C@@H](CC(C)C)C(=O)N[C@@H](CCCCN)C(=O)N[C@@H](CC(C)C)C(=O)N[C@@H](CC(C)C)C(N)=O)[C@@H](C)CC` [L-GL13K, Gly-Lys-Ile-Ile-Lys-Leu-Lys-Ala-Ser-Leu-Lys-Leu-Leu-NH2] (H-GKIIKLKASLKLL-NH2; N-terminus assumed), the “MIC (mg/L)” value in data set [1] (OD600, mean ± SEM) is “resistant”; in data set [1] (symbol) it was “>”. Also, the figures for the “Proteolysis of peptide (loss of activity against bioluminescent P. aeruginosa Xen41)” value in data set [2] and in data set [3] were “did not show significant proteolysis” and “almost complete proteolysis”, respectively. The “Effect on Triton X-100 induced autolysis (OD600)” value in the data set with E. faecalis OG1RF [4] is recorded as “somewhat reduced autolysis”. In addition, the “Reduction of viable cells under autolysis conditions” value in the data set with E. faecalis OG1RF [5] is given as “small, yet non-significant, reduction of cell numbers”.
